Tests used:
[1] = molecular target: Beta-1 adrenergic receptor (Homo sapiens) (UniProt P08588); assay: beta1 (h) Eurofins-Cerep Cellular and Nuclear Receptor Functional Assays; conditions: Compound concentration 10.0 uM
[2] = molecular target: Activin receptor type-1B (Homo sapiens) (UniProt P36896); conditions: Compound concentration 1000.0 nM
[3] = molecular target: 5'-AMP-activated protein kinase catalytic subunit alpha-1 (Homo sapiens) (UniProt Q13131); conditions: Compound concentration 1000.0 nM
[4] = molecular target: Protein-tyrosine kinase 6 (Homo sapiens) (UniProt Q13882); conditions: Compound concentration 1000.0 nM
[5] = molecular target: Calcium/calmodulin-dependent protein kinase type II subunit delta (Homo sapiens) (UniProt Q13557); conditions: Compound concentration 1000.0 nM
[6] = molecular target: Calcium/calmodulin-dependent protein kinase type IV (Homo sapiens) (UniProt Q16566); conditions: Compound concentration 1000.0 nM
[7] = molecular target: Cyclin-dependent kinase 7 (Homo sapiens) (UniProt P50613); conditions: Compound concentration 1000.0 nM
[8] = molecular target: Casein kinase I isoform alpha (Homo sapiens) (UniProt P48729); conditions: Compound concentration 1000.0 nM
[9] = system: Epidermal growth factor receptor (Homo sapiens), P00533 [G719S]; conditions: Compound concentration 1000.0 nM
[10] = molecular target: Ephrin type-A receptor 1 (Homo sapiens) (UniProt P21709); conditions: Compound concentration 1000.0 nM
[11] = molecular target: Fibroblast growth factor receptor 1 (Homo sapiens) (UniProt P11362); conditions: Compound concentration 1000.0 nM
[12] = molecular target: Insulin-like growth factor 1 receptor (Homo sapiens) (UniProt P08069); conditions: Compound concentration 1000.0 nM
[13] = molecular target: Mitogen-activated protein kinase 8 (Homo sapiens) (UniProt P45983); conditions: Compound concentration 1000.0 nM
[14] = system: Mast/stem cell growth factor receptor Kit (Homo sapiens), P10721 [D816H]; conditions: Compound concentration 1000.0 nM
[15] = molecular target: Tyrosine-protein kinase Lck (Homo sapiens) (UniProt P06239); conditions: Compound concentration 1000.0 nM
[16] = molecular target: Serine/threonine-protein kinase MAK (Homo sapiens) (UniProt P20794); conditions: Compound concentration 1000.0 nM
[17] = molecular target: Mitogen-activated protein kinase kinase kinase 3 (Homo sapiens) (UniProt Q99759); conditions: Compound concentration 1000.0 nM
[18] = molecular target: MAP/microtubule affinity-regulating kinase 3 (Homo sapiens) (UniProt P27448); conditions: Compound concentration 1000.0 nM
[19] = molecular target: Microtubule-associated serine/threonine-protein kinase 1 (Homo sapiens) (UniProt Q9Y2H9); conditions: Compound concentration 1000.0 nM
[20] = system: Phosphatidylinositol 4,5-bisphosphate 3-kinase catalytic subunit alpha isoform (Homo sapiens), P42336 [C420R]; conditions: Compound concentration 1000.0 nM
[21] = molecular target: Phosphatidylinositol 5-phosphate 4-kinase type-2 gamma (Homo sapiens) (UniProt Q8TBX8); conditions: Compound concentration 1000.0 nM
[22] = molecular target: Serine/threonine-protein kinase PLK4 (Homo sapiens) (UniProt O00444); conditions: Compound concentration 1000.0 nM
[23] = molecular target: Protein-tyrosine kinase 2-beta (Homo sapiens) (UniProt Q14289); conditions: Compound concentration 1000.0 nM
[24] = system: Proto-oncogene tyrosine-protein kinase receptor Ret (Homo sapiens), P07949 [M918T]; conditions: Compound concentration 1000.0 nM
[25] = molecular target: Ribosomal protein S6 kinase alpha-1 (Homo sapiens) (UniProt Q15418); conditions: Compound concentration 1000.0 nM
[26] = molecular target: Ribosomal protein S6 kinase beta-1 (Homo sapiens) (UniProt P23443); conditions: Compound concentration 1000.0 nM
[27] = molecular target: STE20-like serine/threonine-protein kinase (Homo sapiens) (UniProt Q9H2G2); conditions: Compound concentration 1000.0 nM
[28] = molecular target: Dual specificity protein kinase TTK (Homo sapiens) (UniProt P33981); conditions: Compound concentration 1000.0 nM
[29] = molecular target: T1, 5-hydroxytryptamine receptor 1A (Homo sapiens) (UniProt P08908); conditions: Compound concentration 10.0 uM
T1 sequence (whole entry): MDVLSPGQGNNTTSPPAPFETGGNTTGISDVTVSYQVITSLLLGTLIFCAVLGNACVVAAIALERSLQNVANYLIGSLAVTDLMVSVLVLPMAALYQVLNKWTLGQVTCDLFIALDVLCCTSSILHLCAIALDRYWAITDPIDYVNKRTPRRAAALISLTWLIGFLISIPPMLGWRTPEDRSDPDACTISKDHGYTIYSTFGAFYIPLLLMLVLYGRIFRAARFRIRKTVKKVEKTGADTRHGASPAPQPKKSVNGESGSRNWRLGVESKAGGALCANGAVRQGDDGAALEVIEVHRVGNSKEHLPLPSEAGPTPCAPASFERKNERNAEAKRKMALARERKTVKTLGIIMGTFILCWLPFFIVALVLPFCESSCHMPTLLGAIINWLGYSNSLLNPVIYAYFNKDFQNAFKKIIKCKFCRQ

[30] = molecular target: D(1A) dopamine receptor (Homo sapiens) (UniProt P21728); conditions: Compound concentration 10.0 uM
[31] = molecular target: Sodium-dependent dopamine transporter (Homo sapiens) (UniProt Q01959); conditions: Compound concentration 10.0 uM
[32] = molecular target: T2, Muscarinic acetylcholine receptor M1 (Homo sapiens) (UniProt P11229); conditions: Compound concentration 10.0 uM
T2 sequence (whole entry): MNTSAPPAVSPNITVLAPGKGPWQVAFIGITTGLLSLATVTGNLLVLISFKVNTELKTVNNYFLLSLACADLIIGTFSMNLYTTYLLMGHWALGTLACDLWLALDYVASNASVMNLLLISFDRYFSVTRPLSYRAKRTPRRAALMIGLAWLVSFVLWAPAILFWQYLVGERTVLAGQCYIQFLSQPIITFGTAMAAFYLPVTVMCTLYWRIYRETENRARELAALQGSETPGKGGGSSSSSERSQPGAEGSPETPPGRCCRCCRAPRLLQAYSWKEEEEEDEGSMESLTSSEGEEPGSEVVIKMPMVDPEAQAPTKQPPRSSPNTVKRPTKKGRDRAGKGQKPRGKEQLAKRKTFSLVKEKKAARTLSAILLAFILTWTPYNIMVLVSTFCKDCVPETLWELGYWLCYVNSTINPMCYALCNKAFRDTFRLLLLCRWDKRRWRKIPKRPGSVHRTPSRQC

Beta-1 adrenergic receptor (Homo sapiens), sequence (P08588 whole entry, looked up): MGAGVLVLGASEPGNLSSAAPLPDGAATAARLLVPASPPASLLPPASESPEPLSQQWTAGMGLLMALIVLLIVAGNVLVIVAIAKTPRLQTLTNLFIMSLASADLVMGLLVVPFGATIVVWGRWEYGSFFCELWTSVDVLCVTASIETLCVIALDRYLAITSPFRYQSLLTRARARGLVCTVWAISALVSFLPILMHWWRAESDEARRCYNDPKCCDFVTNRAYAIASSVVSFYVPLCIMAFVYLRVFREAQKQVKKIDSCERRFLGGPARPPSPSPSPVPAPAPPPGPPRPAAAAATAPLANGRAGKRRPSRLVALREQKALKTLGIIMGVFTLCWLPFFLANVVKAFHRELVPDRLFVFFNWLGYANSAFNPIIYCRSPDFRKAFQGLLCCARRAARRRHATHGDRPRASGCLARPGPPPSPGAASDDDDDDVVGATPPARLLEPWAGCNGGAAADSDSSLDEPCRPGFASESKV
Ribosomal protein S6 kinase alpha-1 (Homo sapiens), sequence (Q15418 whole entry): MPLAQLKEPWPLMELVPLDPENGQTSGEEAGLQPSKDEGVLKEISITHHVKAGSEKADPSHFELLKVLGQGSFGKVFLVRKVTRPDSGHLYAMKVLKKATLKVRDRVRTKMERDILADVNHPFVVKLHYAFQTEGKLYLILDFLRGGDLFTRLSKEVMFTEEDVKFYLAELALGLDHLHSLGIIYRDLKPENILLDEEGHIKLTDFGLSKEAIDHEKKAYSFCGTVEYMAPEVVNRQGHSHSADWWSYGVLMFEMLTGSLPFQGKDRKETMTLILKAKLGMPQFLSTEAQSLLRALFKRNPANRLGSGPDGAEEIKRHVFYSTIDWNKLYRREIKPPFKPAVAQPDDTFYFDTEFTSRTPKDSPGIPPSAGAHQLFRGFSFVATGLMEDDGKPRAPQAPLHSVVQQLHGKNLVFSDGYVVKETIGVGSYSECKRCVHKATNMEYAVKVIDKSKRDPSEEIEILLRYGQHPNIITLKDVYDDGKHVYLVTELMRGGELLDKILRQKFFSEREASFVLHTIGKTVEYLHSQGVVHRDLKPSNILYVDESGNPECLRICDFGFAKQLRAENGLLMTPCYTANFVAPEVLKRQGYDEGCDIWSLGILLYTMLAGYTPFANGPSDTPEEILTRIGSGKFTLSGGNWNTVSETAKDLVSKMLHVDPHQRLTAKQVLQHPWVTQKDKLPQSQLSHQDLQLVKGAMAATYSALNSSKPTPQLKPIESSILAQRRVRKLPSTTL
Cyclin-dependent kinase 7 (Homo sapiens), sequence (P50613 whole entry, canonical isoform): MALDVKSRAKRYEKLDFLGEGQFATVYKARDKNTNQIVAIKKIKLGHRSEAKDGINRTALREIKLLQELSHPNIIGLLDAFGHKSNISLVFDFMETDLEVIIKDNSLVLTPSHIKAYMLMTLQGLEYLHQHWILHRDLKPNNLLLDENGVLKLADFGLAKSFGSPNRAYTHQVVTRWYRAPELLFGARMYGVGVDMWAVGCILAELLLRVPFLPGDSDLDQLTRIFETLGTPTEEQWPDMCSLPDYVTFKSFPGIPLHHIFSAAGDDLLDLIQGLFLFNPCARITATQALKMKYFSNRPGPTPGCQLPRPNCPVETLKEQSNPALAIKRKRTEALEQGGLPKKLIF
Mitogen-activated protein kinase kinase kinase 3 (Homo sapiens), sequence (Q99759 whole entry): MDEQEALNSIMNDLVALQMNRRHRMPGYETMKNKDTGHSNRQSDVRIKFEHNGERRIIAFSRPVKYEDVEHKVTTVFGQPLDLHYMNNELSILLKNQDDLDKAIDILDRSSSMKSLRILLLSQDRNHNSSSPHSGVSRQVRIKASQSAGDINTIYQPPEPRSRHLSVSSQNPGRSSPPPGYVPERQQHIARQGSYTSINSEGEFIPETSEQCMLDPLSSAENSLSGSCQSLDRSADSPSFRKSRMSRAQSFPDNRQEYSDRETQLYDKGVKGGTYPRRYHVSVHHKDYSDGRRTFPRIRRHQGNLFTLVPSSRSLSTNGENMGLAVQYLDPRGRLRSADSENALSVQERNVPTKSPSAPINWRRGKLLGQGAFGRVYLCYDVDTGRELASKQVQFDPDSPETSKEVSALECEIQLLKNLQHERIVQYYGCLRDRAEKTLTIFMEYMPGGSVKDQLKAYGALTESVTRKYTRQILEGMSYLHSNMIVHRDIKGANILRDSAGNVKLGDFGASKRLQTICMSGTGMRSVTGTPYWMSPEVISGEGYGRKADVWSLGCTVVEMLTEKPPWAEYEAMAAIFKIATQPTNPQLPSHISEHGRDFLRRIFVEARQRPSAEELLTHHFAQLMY
Activin receptor type-1B (Homo sapiens), sequence (P36896 whole entry): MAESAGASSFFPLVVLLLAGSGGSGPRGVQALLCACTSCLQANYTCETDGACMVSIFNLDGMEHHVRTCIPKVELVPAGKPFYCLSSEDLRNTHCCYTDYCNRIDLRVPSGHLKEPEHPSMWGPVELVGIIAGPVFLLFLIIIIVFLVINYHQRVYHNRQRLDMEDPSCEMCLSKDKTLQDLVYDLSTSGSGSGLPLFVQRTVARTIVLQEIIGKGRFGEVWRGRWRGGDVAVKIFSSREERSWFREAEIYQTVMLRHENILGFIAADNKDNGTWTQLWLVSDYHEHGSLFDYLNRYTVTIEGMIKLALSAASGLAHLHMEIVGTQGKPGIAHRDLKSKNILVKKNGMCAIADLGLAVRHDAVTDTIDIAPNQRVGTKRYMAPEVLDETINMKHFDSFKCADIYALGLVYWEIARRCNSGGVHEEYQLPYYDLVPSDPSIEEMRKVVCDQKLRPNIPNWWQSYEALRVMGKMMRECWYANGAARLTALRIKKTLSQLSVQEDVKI
Dual specificity protein kinase TTK (Homo sapiens), sequence (P33981 whole entry): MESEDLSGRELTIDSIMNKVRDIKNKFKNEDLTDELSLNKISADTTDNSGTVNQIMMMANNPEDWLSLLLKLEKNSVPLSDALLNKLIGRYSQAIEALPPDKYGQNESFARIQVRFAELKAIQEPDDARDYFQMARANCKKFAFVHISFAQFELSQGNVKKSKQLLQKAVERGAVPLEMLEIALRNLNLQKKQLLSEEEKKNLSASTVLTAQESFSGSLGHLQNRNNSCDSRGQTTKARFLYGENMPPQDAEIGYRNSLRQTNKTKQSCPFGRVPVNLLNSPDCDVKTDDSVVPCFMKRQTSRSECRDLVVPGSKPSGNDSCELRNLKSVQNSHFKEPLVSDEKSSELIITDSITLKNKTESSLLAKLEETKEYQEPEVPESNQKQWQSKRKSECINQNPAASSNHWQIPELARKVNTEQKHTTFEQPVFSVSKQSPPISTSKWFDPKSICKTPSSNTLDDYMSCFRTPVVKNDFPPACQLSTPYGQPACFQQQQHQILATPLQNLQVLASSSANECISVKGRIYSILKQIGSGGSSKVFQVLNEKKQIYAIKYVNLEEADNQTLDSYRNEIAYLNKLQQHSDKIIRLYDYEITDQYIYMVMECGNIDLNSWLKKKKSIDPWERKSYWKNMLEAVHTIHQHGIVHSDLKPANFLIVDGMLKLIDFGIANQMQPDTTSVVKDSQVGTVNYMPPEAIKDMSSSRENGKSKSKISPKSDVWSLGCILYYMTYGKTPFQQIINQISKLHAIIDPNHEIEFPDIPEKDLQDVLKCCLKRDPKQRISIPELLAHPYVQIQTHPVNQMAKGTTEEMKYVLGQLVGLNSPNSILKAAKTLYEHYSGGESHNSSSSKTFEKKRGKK
Ribosomal protein S6 kinase beta-1 (Homo sapiens), sequence (P23443 whole entry, looked up): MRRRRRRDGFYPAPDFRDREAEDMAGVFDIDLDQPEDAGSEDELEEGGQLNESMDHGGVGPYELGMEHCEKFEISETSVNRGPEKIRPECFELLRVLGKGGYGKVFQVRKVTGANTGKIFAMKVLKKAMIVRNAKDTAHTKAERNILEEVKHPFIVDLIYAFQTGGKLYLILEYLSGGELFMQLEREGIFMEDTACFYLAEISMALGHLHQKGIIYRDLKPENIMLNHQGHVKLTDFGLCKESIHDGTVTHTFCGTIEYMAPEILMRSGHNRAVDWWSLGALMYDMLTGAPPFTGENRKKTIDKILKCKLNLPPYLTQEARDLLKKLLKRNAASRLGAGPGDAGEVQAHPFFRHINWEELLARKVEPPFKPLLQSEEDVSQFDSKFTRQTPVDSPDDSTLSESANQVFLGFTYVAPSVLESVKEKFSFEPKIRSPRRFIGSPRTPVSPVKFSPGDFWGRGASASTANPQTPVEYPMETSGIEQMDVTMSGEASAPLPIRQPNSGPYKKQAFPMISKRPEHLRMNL
Mast/stem cell growth factor receptor Kit (Homo sapiens), P10721 [D816H], sequence (P10721 whole entry D816H): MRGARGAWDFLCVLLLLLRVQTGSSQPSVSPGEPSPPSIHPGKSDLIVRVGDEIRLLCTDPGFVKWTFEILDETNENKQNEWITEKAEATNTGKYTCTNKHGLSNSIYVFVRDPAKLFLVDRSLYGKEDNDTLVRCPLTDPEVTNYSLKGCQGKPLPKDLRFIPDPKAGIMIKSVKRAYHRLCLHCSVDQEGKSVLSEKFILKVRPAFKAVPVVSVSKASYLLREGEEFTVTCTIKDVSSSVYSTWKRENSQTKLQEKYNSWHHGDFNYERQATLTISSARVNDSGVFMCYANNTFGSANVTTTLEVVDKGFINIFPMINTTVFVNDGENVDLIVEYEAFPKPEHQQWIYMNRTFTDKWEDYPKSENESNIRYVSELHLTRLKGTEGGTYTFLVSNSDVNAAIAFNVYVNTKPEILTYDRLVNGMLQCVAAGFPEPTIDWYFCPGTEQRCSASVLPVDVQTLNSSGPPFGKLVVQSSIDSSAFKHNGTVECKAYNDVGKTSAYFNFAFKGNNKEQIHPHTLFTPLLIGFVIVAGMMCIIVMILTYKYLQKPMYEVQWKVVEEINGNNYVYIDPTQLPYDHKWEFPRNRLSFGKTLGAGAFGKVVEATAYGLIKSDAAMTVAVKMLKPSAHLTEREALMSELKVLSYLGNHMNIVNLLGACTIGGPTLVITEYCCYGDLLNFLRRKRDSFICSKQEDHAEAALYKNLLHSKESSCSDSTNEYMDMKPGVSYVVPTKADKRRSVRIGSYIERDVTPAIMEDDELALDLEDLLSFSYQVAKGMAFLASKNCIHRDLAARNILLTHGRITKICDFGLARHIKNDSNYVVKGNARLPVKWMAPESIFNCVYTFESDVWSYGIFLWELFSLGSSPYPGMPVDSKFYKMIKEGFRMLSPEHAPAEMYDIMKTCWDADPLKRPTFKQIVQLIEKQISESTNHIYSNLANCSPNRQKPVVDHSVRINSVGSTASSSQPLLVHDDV

O=C(N1CCS(=O)(=O)CC1)N1C[C@H](c2ccc(OC(F)(F)F)cc2)C[C@H](c2nc(C3CC3)no2)C1 [BAY-386]
-0.2%: % Inhibition of Control Agonist Response (Mean n=2) [1]
inactive: residual activity [2] 100% | residual activity [3] 100% | residual activity [4] 100% | residual activity [5] 100% | residual activity [6] 91% | residual activity [7] 100% | residual activity [8] 100% | residual activity [9] 99% | residual activity [10] 100% | residual activity [11] 100% | residual activity [12] 100% | residual activity [13] 82% | residual activity [14] 71% | residual activity [15] 100% | residual activity [16] 100% | residual activity [17] 100% | residual activity [18] 98% | residual activity [19] 100% | residual activity [20] 100% | residual activity [21] 96% | residual activity [22] 100% | residual activity [23] 99% | residual activity [24] 92% | residual activity [25] 100% | residual activity [26] 100% | residual activity [27] 100% | residual activity [28] 82% | inhibition [29] 14.7% | inhibition [30] 3.2% | inhibition [31] 0.01% | inhibition [32] 2.07%
3.4%: % of Control Agonist Response (Mean n=2) [1]

Cc1noc([C@H]2C[C@@H](c3ccc(C(F)(F)F)cc3)CN(C(=O)N3CCS(=O)(=O)C3)C2)n1 [BAY-448]
0.3%: % of Control Agonist Response (Mean n=2) [1]
inactive: residual activity [2] 100% | residual activity [3] 100% | residual activity [4] 100% | residual activity [5] 100% | residual activity [6] 95% | residual activity [7] 89% | residual activity [8] 70% | residual activity [9] 100% | residual activity [10] 89% | residual activity [11] 100% | residual activity [12] 100% | residual activity [13] 77% | residual activity [14] 100% | residual activity [15] 100% | residual activity [16] 100% | residual activity [17] 84% | residual activity [18] 100% | residual activity [19] 100% | residual activity [20] 84% | residual activity [21] 89% | residual activity [22] 88% | residual activity [23] 100% | residual activity [24] 100% | residual activity [25] 87% | residual activity [26] 75% | residual activity [27] 98% | residual activity [28] 100% | inhibition [29] -4.52% | inhibition [30] 10.6% | inhibition [31] 5.46% | inhibition [32] -7.31%
6.8%: % Inhibition of Control Agonist Response (Mean n=2) [1]

From ChEMBL document CHEMBL4507269, “Data for DCP probe BAY-386” (2021)
